From US10640495B2, “Heterocycle derivatives having TrkA inhibitory activity” (Shionogi & Co., Ltd., priority 2015, dated 2020)

molecular target: human TrkA (Homo sapiens (Human), UniProt P04629); experiment: Human TrkA inhibition assay (Test Example 2); format: biochemical; conditions: Table 156, human TrkA inhibition; read-out: IC50
Outline: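 Mobility-shift readout of phosphorylated versus unphosphorylated fluorescent peptide gave conversion ratio, normalized to DMSO and no-enzyme wells; IC50 by logistic fit of 10- or 15-point 3-fold dilutions. Conditions: 1 nmol/L enzyme, 15 min compound preincubation, then 500 μmol/L ATP plus 1.5 μmol/L peptide, 120 min, 37 °C.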

human TrkA, sequence (P04629 440-796): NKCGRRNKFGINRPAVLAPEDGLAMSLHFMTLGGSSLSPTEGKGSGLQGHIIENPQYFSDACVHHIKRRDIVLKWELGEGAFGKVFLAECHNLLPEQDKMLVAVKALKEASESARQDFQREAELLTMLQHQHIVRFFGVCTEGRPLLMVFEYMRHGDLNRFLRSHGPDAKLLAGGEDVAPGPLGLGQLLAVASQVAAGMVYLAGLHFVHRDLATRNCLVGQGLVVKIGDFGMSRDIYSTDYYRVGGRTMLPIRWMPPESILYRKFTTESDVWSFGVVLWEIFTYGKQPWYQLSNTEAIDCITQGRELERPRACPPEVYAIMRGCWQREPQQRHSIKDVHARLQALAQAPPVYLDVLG

Row | IC50 [nM] | Compound
1 | < 100 | CC(=O)N1CCC(COc2nn(-c3ccccc3)c(NC(=O)N[C@@H]3CN(CC(F)F)O[C@H]3c3ccc(F)c(F)c3)c2C)CC1 (racemic) [Compound I-565]
2 | < 100 | CCN1C[C@@H](NC(=O)Nc2c(C)c(OCC3CCN(C(C)=O)CC3)nn2-c2ccccc2)[C@H](c2ccc(F)cc2)O1 (racemic) [Compound I-566]
3 | < 100 | Cc1c(OCC2CCN(C)CC2)nn(-c2ccccc2)c1NC(=O)N[C@@H]1CN(CCF)O[C@H]1c1ccc(F)c(F)c1 (racemic) [Compound I-567]
4 | < 100 | Cc1c(OCC2CCN(C)CC2)nn(-c2ccccc2)c1NC(=O)N[C@@H]1CN(CC(F)F)O[C@H]1c1ccc(F)c(F)c1 (racemic) [Compound I-568]
5 | < 100 | CCN1C[C@@H](NC(=O)Nc2c(C)c(OCC3CCN(C)CC3)nn2-c2ccccc2)[C@H](c2ccc(F)cc2)O1 (racemic) [Compound I-569]
6 | < 100 | CCN1C[C@@H](NC(=O)Nc2c(C)c(-c3cnc(OC)c(C(=O)NC)c3)nn2-c2ccccc2)[C@H](c2ccc(F)cc2)O1 (racemic) [Compound I-570]
7 | < 100 | CNC(=O)c1cc(-c2nn(-c3ccccc3)c(NC(=O)N[C@@H]3CN(CC(F)(F)F)O[C@H]3c3ccc(F)c(F)c3)c2C)cnc1OC (racemic) [Compound I-571]

same assay, conditions: Table 157, human TrkA inhibition; read-out: IC50

Row | IC50 [nM] | Compound
8 | < 100 | COCCN1C[C@@H](NC(=O)Nc2c(C)c(-c3cnc(N(C)CCCN(C)C)nc3)nn2-c2ccccc2)[C@H](c2ccnc(F)c2)O1 (racemic) [Compound I-589]
9 | < 100 | COCCN1C[C@@H](NC(=O)Nc2c(C)c(-c3cnc4oc(C)nc4c3)nn2-c2ccccc2)[C@H](c2ccnc(F)c2)O1 (racemic) [Compound I-596]
10 | < 100 | COCCN1C[C@@H](NC(=O)Nc2c(C)c(-c3cnc4c(c3)OCO4)nn2-c2ccccc2)[C@H](c2ccnc(F)c2)O1 (racemic) [Compound I-606]
11 | < 100 | CCN1C[C@@H](NC(=O)Nc2c(C)c(OCC3CCN(C(=O)CO)CC3)nn2-c2ccccc2)[C@H](c2ccc(F)c(F)c2)O1 (racemic) [Compound I-607]
12 | < 100 | CCN1C[C@@H](NC(=O)Nc2c(C)c(OCC3CCN(C(=O)COC)CC3)nn2-c2ccccc2)[C@H](c2ccc(F)c(F)c2)O1 (racemic) [Compound I-608]
13 | < 100 | CCN1CCC(COc2nn(-c3ccccc3)c(NC(=O)N[C@@H]3CN(CC)O[C@H]3c3ccc(F)c(F)c3)c2C)CC1 (racemic) [Compound I-609]
14 | < 100 | CCN1C[C@@H](NC(=O)Nc2c(C)c(OCCCN(C)C)nn2-c2ccccc2)[C@H](c2ccc(F)c(F)c2)O1 (racemic) [Compound I-610]
15 | < 100 | CCN1C[C@@H](NC(=O)Nc2c(C)c(-c3ccc4nc(C(N)=O)cn4c3)nn2-c2ccccc2)[C@H](c2ccc(F)c(F)c2)O1 (racemic) [Compound I-611]
16 | < 100 | CCN1C[C@@H](NC(=O)Nc2c(C)c(-c3cnc(C(N)=O)c(F)c3)nn2-c2ccccc2)[C@H](c2ccc(F)c(F)c2)O1 (racemic) [Compound I-612]
17 | < 100 | CCN1C[C@@H](NC(=O)Nc2c(C)c(-c3cnc(C(=O)NC)c(F)c3)nn2-c2ccccc2)[C@H](c2ccc(F)c(F)c2)O1 (racemic) [Compound I-613]

Further lines, the molecule ahead of its results:

Row | Compound | IC50 [nM]
18 | COCCN1CC(NC(=O)Nc2c(C)c(-c3cnc(N4CC5(CCO5)C4)nc3)nn2-c2ccccc2)C(c2ccnc(F)c2)O1 (racemic) [Compound I-581] | < 100
19 | COCCN1C[C@@H](NC(=O)Nc2c(C)c(-c3cnc(N4CC(N(C)C)C4)nc3)nn2-c2ccccc2)[C@H](c2ccnc(F)c2)O1 (racemic) [Compound I-582] | < 100
20 | COCCN1C[C@@H](NC(=O)Nc2c(C)c(-c3cnc(N4CC(N5CCOCC5)C4)nc3)nn2-c2ccccc2)[C@H](c2ccnc(F)c2)O1 (racemic) [Compound I-583] | < 100
21 | COCCN1C[C@@H](NC(=O)Nc2c(C)c(-c3cnc(N(C)CCOC)nc3)nn2-c2ccccc2)[C@H](c2ccnc(F)c2)O1 (racemic) [Compound I-588] | < 100
